pEC50, pIC50: −log10 of the molar value. Like-named read-outs stand apart in the source and are kept apart here.
What was measured:
[1] = target: interaction between PD-1 and PD-L1 (Homo sapiens (Human), UniProt Q9NZQ7); test: PD1-PDL1 HTRF binding activity test (Cisbio PD-1/PD-L1 binding assay kit)
[2] = target: interaction between PD-1 and PD-L1 expressed on cell surfaces (Homo sapiens (Human), UniProt Q9NZQ7); test: Jurkat reporter gene cellular assay (Jurkat/NF-κB-luc/PD1 cells cocultured with Raji-PD-L1 cells, OKT-3 stimulation); assay type: cell-based
interaction between PD-1 and PD-L1 expressed on cell surfaces, sequence (Q9NZQ7 19-290): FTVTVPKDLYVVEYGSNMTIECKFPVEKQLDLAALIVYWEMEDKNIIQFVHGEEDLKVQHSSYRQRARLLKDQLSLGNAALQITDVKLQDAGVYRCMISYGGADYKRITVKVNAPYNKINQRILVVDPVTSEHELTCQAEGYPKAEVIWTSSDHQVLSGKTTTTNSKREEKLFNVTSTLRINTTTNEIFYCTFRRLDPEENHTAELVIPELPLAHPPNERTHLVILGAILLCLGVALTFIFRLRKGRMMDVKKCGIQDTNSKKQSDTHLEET
Summary of the method: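 Jurkat cells stably expressing human PD-1 and NF-κB-luciferase were cocultured with Raji cells stably expressing human PD-L1 under OKT-3 stimulation, with compound present. Luminescence was read after 6 h.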

[3] = Pharmacokinetic assay in mice, per oral administration; assay type: in vivo; conditions: ICR mice
Source text: C. Pharmacokinetic Assay in Mice
The purpose of this study was to study the pharmacokinetic behaviors of some compounds of the present invention, and administration routes were: per oral administration (PO) to ICR mice:
The compounds used in this test came from the compounds of the specific examples of the present invention.
ICR mice male N=3 original source: Shanghai Sippr-BK Laboratory Animal Co. Ltd.
2.3 Preparation and Administration of Medicaments
The compounds were weighed, and dissolved in solvent of 0.5% SDS+0.5% CMCNa. The mixture solutions were mixed well by shaking and ultrasonic treatment to obtain colorless clear solutions. The solutions were orally administered to nine mice after an overnight fast. The dosage of administration was 10 mg/kg (or 30 mg/kg).
With about 90 μL/time point, blood was drawn from the submaxillary vein, and heparin sodium was added for anticoagulation. The blood samples were placed onto the ice, and were centrifuged (centrifugation conditions: 8000 r/min, 6 min, 2-8° C.) within 1 hr to obtain plasmas. The time points for blood sampling were at 0 hr, 0.25 hr, 0.5 hr, 1 hr, 2 hrs, 4 hrs, 6 hrs, 8 hrs and 24 hrs after administration. The samples were stored in a refrigerator at −20° C.
40 μL of plasma sample was added to 160 μL of cold acetonitrile containing an internal standard, and the mixture solution was vortexed for 3 min and centrifuged at 11,000 r/min for 5 min. 100 μL of supernate was taken and added to 100 μL of water, and 5 μL of the sample was taken and analyzed by LC/MS/MS. Only the original compounds were analyzed for examples 1, 3, 5, 8, 46 and 141 (for results, see table 2); and both the original compounds and possible products of ester hydrolysis, namely example 2, 27, 65 and 105, were analyzed for examples 4, 26, 64 and 104 (for results, see table 3).

[4] = male, mouse, plasma, PO 10 mg/kg, original compound analyzed
[5] = male, mouse, plasma, PO 10 mg/kg, original compound analyzed, class symbol
[6] = male, mouse, PO 10 mg/kg, plasma, original compound analyzed, class symbol, read-out: Cmax
[7] = read-out: PD1-PDL1 HTRF Binding Activity IC50
[8] = NF-κB-luc reporter activation fold, 6 hrs, read-out: Cell Activity EC50
[9] = male, mouse, plasma, PO 30 mg/kg, original compound (ester) analyzed
[10] = male, mouse, plasma, PO 30 mg/kg, original compound (ester) analyzed, class symbol
[11] = male, mouse, plasma, PO 30 mg/kg, original compound (ester) analyzed, class symbol, read-out: Cmax
[12] = product of ester hydrolysis analyzed after PO 30 mg/kg of the ester (2 after 4, 27 after 26, 65 after 64)

interaction between PD-1 and PD-L1, sequence (Q9NZQ7 19-238): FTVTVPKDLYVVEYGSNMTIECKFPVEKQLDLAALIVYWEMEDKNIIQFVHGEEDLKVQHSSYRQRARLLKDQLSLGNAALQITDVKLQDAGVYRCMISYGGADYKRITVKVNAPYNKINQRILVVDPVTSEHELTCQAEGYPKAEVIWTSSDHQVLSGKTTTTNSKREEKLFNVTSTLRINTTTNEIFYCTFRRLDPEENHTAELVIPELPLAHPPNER

## Cc1c(NC(=O)c2ccc(CNCCO)cn2)cccc1-c1cccc(NC(=O)c2ccc(CNCCO)cn2)c1C [Example 1, N,N′-(2,2′-dimethyl-[1,1′-biphenyl]-3,3′-diyl)bis(5-(((2-hydroxyethyl)amino)methyl)picolinamide)]
[1]
  pIC50: 9.77
[2]
  pEC50: 6.86
[3]; [4]
  MRT: 3.3 h
  Tmax: 1 h
  half-life: 2.4 h
[3]; [5]
  AUC(0-t): ≤ 0.5 µg·h/mL
[3]; [6]
  Cmax: ≤ 0.1 µg/mL

## COc1cc(C(=O)Nc2cccc(-c3cccc(NC(=O)c4cc(OC)c(CNCCO)cn4)c3C)c2C)ncc1CNCCO [Example 3, N,N′-(2,2′-dimethyl-[1,1′-biphenyl]-3,3′-diyl)bis(5-(((2-hydroxyethyl)amino)methyl)-4-methoxypicolinamide)]
[1]; [7]
  pIC50: 9.70
[2]; [8]
  pEC50: 7.43
[3]; [4]
  MRT: 16.7 h
  Tmax: 0.5 h
  half-life: 12.9 h
[3]; [5]
  AUC(0-t): > 2 µg·h/mL
[3]; [6]
  Cmax: 0.1 to 0.5 µg/mL

## COC(=O)[C@@H](CO)NCc1cnc(C(=O)Nc2cccc(-c3cccc(NC(=O)c4cc(OC)c(CN[C@H](CO)C(=O)OC)cn4)c3C)c2C)cc1OC [Example 4, dimethyl 2,2′-((((((2,2′-dimethyl-[1,1′-biphenyl]-3,3′-diyl)bis(azanediyl))bis(carbonyl))bis(4-methoxypyridine-6,3-diyl))bis(methylene))bis(azanediyl))(2R,2′R)-bis(3-hydroxypropanoate)]
[1]; [7]
  pIC50: 10.19
[2]; [8]
  pEC50: 5.87
[3]; PO 30 mg/kg, original compound (ester) analyzed
  Cmax: BQL
[3]
  ester hydrolysis in the bodies of the mice after oral administration: rapidly became corresponding acids

## Cc1cc(C(=O)Nc2cccc(-c3cccc(NC(=O)c4cc(C)c(CNCCO)cn4)c3C)c2C)ncc1CNCCO [Example 5, N,N′-(2,2′-dimethyl-[1,1′-biphenyl]-3,3′-diyl)bis(5-(((2-hydroxyethyl)amino)methyl)-4-methylpicolinamide)]
[1]; [7]
  pIC50: 9.44
[2]; [8]
  pEC50: 7.19
[3]; [4]
  AUC(0-t): 1.69 µg·h/mL
  MRT: 10.2 h
  Tmax: 2 h
  half-life: 8.3 h
[3]; [6]
  Cmax: 0.1 to 0.5 µg/mL

## Cc1cc(C(=O)Nc2cccc(-c3cccc(NC(=O)c4cc(C)c(CNC(CO)CO)cn4)c3C)c2C)ncc1CNC(CO)CO [Example 8, N,N′-(2,2′-dimethyl-[1,1′-biphenyl]-3,3′-diy)bis(5-(((1,3-dihydroxypropan-2-yl)amino)methyl)-4-methylpicolinamide)]
[1]; [7]
  pIC50: 9.39
[2]; [8]
  pEC50: 6.73
[3]; [4]
  MRT: 5.4 h
  Tmax: 2 h
  half-life: 3 h
[3]; [5]
  AUC(0-t): 0.5 to 2 µg·h/mL
[3]; male, mouse, PO 10 mg/kg, plasma, original compound analyzed, read-out: Cmax
  Cmax: 0.319 µg/mL

## COC(=O)[C@@H]1CCCCN1Cc1cnc(C(=O)Nc2cccc(-c3cccc(NC(=O)c4cc(C)c(CN5CCCC[C@H]5C(=O)OC)cn4)c3C)c2C)cc1C [Example 26, dimethyl 1,1′-(((((2,2′-dimethyl-[1,1′-biphenyl]-3,3′-diyl)bis (azanediyl))bis(carbonyl))bis (4-methylpyridine-6,3-diyl))bis(methylene))(2S,2′S)-bis (piperidine-2-carboxylate)]
[1]; [7]
  pIC50: 7.19
[3]; [9]
  MRT: 7 h
  Tmax: 6 h
  half-life: 3.6 h
[3]; [10]
  AUC(0-t): > 2 µg·h/mL
[3]; [11]
  Cmax: > 0.5 µg/mL
[3]
  ester hydrolysis in the bodies of the mice after oral administration: no product of ester hydrolysis was detected

## Cc1cc(C(=O)Nc2cccc(-c3cccc(NC(=O)c4cc(C)c(CN5CCCC[C@H]5C(=O)O)cn4)c3C)c2C)ncc1CN1CCCC[C@H]1C(=O)O [Example 27, (2S,2′S)-1,1′-(((((2,2′-dimethyl-[1,1′-biphenyl]-3,3′-diyl)bis(azanediyl))bis(carbonyl))bis(4-methylpyridine-6,3-diyl))bis (methylene))bis(piperidine-2-carboxylic acid)]
[1]; [7]
  pIC50: 9.55
[2]; [8]
  pEC50: 6.89
[3]; [12]
  Cmax: BQL

## COc1cc(C(=O)Nc2cccc(-c3cccc(NC(=O)c4cc(OC)c(CN5CC(C)(O)C5)cn4)c3C)c2C)ncc1CN1CC(C)(O)C1 [Example 46, N,N'-(2,2′-dimethyl-[1,1′-biphenyl]-3,3′-diyl)bis(5-((3-hydroxy-3-methylazetidin-1-yl)methyl)-4-methoxypicolinamide)]
[1]; [7]
  pIC50: 9.60
[2]; [8]
  pEC50: 7.19
[3]; [4]
  MRT: 15.5 h
  Tmax: 4 h
  half-life: 10.7 h
[3]; [5]
  AUC(0-t): 0.5 to 2 µg·h/mL
[3]; [6]
  Cmax: ≤ 0.1 µg/mL

## COC(=O)[C@@H]1CCCCN1Cc1cnc(C(=O)Nc2cccc(-c3cccc(NC(=O)c4cc(OC)c(CN5CCCC[C@H]5C(=O)OC)cn4)c3C)c2C)cc1OC [Example 64]
[1]; [7]
  pIC50: 7.97
[2]; [8]
  pEC50: 5.73
[3]; [9]
  MRT: 4.6 h
  Tmax: 2 h
  half-life: 3.7 h
[3]; [10]
  AUC(0-t): > 2 µg·h/mL
[3]; [11]
  Cmax: > 0.5 µg/mL
[3]
  ester hydrolysis in the bodies of the mice after oral administration: no product of ester hydrolysis was detected

## COc1cc(C(=O)Nc2cccc(-c3cccc(NC(=O)c4cc(OC)c(CN5CCCC[C@H]5C(=O)O)cn4)c3C)c2C)ncc1CN1CCCC[C@H]1C(=O)O [Example 65, (2S,2S)-1,1′-(((((2,2′-dimethyl-[1,1′-bipheny]-3,3′-diyl)bis(azanediyl))bis(carbonyl))bis(4-methoxypyridine-6,3-diyl))bis(methylene))bis(piperidine-2-carboxylic acid)]
[1]; [7]
  pIC50: 9.92
[2]; [8]
  pEC50: 6.88
[3]; [12]
  Cmax: BQL

## Cc1c(NC(=O)c2cc(C3CC3)c(CN3CC[C@H](C(=O)O)C3)cn2)cccc1-c1cccc(NC(=O)c2cc(C3CC3)c(CN3CC[C@H](C(=O)O)C3)cn2)c1C [Example 134, (3S,3′S)-1,1′-(((((2,2′-dimethyl-[1,1′-biphenyl]-3,3′-diyl)bis(azanediyl))bis (carbonyl))bis(4-cyclopropylpyridine-6,3-diyl))bis(methylene))bis(pyrrolidine-3-carboxylic acid)]
[1]; [7]
  pIC50: 9.09
[2]; [8]
  pEC50: 7.68

## Cc1c(NC(=O)c2cc(C3CC3)c(CNC[C@@H](O)CC(=O)O)cn2)cccc1-c1cccc(NC(=O)c2cc(C3CC3)c(CNC[C@@H](O)CC(=O)O)cn2)c1C [Example 136, (3S,3′S)-4,4′-((((((2,2′-dimethyl-[1,1′-biphenyl]-3,3′-diyl)bis(azanediyl))bis (carbonyl))bis(4-cyclopropylpyridine-6,3-diyl))bis(methylene))bis(azanediyl)) bis(3-hydroxybutanoic acid)]
[1]; [7]
  pIC50: 9.49
[2]; [8]
  pEC50: 7.56

## Cc1c(NC(=O)c2cc(C3CC3)c(CNC[C@@H]3CCC(=O)N3)cn2)cccc1-c1cccc(NC(=O)c2cc(C3CC3)c(CNC[C@@H]3CCC(=O)N3)cn2)c1C [Example 137, N,N′-(2,2′-dimethyl-[1,1′-biplienyl]-3,3′-diyl)bis(4-cyclopropyl-5-(((((S)-5-oxopyrrolidin-2-yl)methyl)amino)methyl)picolinamide)]
[1]; [7]
  pIC50: 8.68
[2]; [8]
  pEC50: 6.97

## Cc1c(NC(=O)c2cc(C3CC3)c(CNCCF)cn2)cccc1-c1cccc(NC(=O)c2cc(C3CC3)c(CNCCF)cn2)c1C [Example 138, N,N′-(2,2′-dimethyl-[1,1′-biphenyl]-3,3′-diyl)bis(4-cyclopropyl-5-(((2-fluoroethyl)amino)methyl)picolinamide)]
[1]; [7]
  pIC50: 8.30
[2]; [8]
  pEC50: 6.24

## Cc1c(NC(=O)c2cc(C3CC3)c(CNCC(F)F)cn2)cccc1-c1cccc(NC(=O)c2cc(C3CC3)c(CNCC(F)F)cn2)c1C [Example 139, N,N′-(2,2′-dimethyl-[1,1′-biphenyl]-3,3′-diyl)bis(4-cyclopropyl-5-(((2,2-difluoroethyl)amino)methyl)picolinamide)]
[1]; [7]
  pIC50: 6.92
[2]; [8]
  pEC50: < 5.00

## Cc1c(NC(=O)c2cc(C3CC3)c(CNCC(F)(F)F)cn2)cccc1-c1cccc(NC(=O)c2cc(C3CC3)c(CNCC(F)(F)F)cn2)c1C [Example 140, N,N′-(2,2′-dimethyl-[1,1′-biphenyl]-3,3′-diyl)bis(4-cyclopropyl-5-(((2,2,2-trifluoroethyl)amino)methyl)picolinamide)]
[1]; [7]
  pIC50: 7.82
[2]; [8]
  pEC50: 5.57

## Cc1cc(C(=O)Nc2cccc(-c3ccccc3)c2C)ncc1CNCCO [Positive compound, reference compound]
[1]; [7]
  pIC50: 8.62
[2]; [8]
  pEC50: < 5.00

Source: patent US11459339B2, “Biaryl derivative, preparation method thereof and pharmaceutical application thereof” (Abbisko Therapeutics Co., Ltd., priority 2018, dated 2022)
